From paper PMC9144027, “Evaluation of a Thermophilic, Psychrostable, and Heavy Metal-Resistant Red Sea Brine Pool Esterase” (Marine Drugs, 2022)

Test system: T1, EstATII-TM (EstATII, A126V)
T1 construct: full ORF (945 bp) in pET-SUMO, His-tagged SUMO fusion, E. coli BL21(DE3), Ni column; 55 kDa; tag cleavage not mentioned; KC958722 is the wild-type nucleotide record; tested form carries A126V
Assay: p-nitrophenol release at […] nm, nonlinear Michaelis-Menten fit
Type: biochemical, uncultured bacterium
Settings: 30 °C, pH 7.5; substrate range 0.01-1 mM; no added metal; Table 1 prints 0.03 (±0.01) μmol; unit doubtful (substrate range suggests mM)

Km: 0.0303 mM
SMILES: CCCC(=O)Oc1ccc([N+](=O)[O-])cc1 [p-nitrophenyl butyrate]
